Reference: patent US20210364519A1, “DETERMINING CANCER RESPONSIVENESS TO TREATMENT” (Queensland University of Technology, priority 2018, published 2021)

Legend:
U2OS cells = assay: Olaparib sensitivity of stable U2OS cell line ectopically expressing recombinant SASH1; type: cell-based
From the text: FIG. 6. Over expression of SASH1 infers resistance to Olaparib in U2OS cells.
Further to this, we made a stable U2OS cell line ectopically expressing recombinant SASH1.

[1] = tested on: cell lines depleted of SASH1; assay: Olaparib sensitivity of cell lines depleted of SASH1 using siRNA; type: cell-based; conditions: number of cell lines tested
From the text: FIG. 5. Depletion of SASH1 increases cancer cell sensitivity to Olaparib. A) Cell lines depleted of SASH1 have a reduced IC50 to Olaparib. B) Combined data of cell lines with SASH1 depletion showing a significant reduction in IC50 to Olaparib.

O=C(c1cc(Cc2n[nH]c(=O)c3ccccc23)ccc1F)N1CCN(C(=O)C2CC2)CC1 [Olaparib]
effect of SASH1 over-expression on Olaparib response (U2OS cells): sufficient to induce resistance
cell lines with increase in sensitivity to Olaparib after depletion of SASH1 [1]: 9 out of 12
